How the values were obtained:
[1] = system: Ifnb1, Il6, and Tnf genes; test: Relative mRNA expression in Poly(I:C)-stimulated peritoneal macrophages (qRT-PCR); type: cell-based, mice; conditions: 6 μM 24 h, Poly(I:C) 1 μg/mL 2, 4 or 6 h, qRT-PCR relative to GAPDH
Protocol: Using PBS, peritoneal macrophages were harvested from mice, and were then seeded on a 96-well plate at a cell density of 2.5×10^5 cells/well, followed by culturing for 2 hours. Thereafter, the cultured cells were washed twice with PBS. IRF-PIPA 3 was suspended in a 10% FBS-RPMI or MEM medium to a final concentration of 6 μM, and the obtained suspension was then added to the cells. After completion of the culture for 24 hours, Poly(I:C) was added to the cultured cells to a final concentration of 1 μg/mL. The obtained mixture was cultured for 2, 4, or 6 hours, and the cells were recovered. Using TRIsure, the recovered cells were suspended at 100 µL/well and was then recovered. Thereafter, the relative expression levels of Ifnb1, Il6, and Tnf genes were measured by qRT-PCR.
(§1) Mouse peritoneal macrophages were harvested from 6-week-old CL57B/6 mice (CLEA Japan, Inc.) by peritoneal lavage using 7 mL of PBS (Nacalai Tesque), and the cells adhered to the culture plate by culture for 2 hours were used in experiments. The culture was carried out using an RPMI or D-MEM medium (Nacalai Tesque) containing 10% FBS (SIGMA-ALDRICH) and Penicillin-Streptomycin mixed solution (Nacalai Tesque). The CL57B/6 mice were bred in an SPF environment.
2.5×10^5 Peritoneal macrophages were seeded on a plate, and were then treated with IRF-PIPA 3 for 24 hours. […]

IFN-β = IFN-β transcription in peritoneal macrophages treated with mRNA vaccine against SARS-COV-2 (qRT-PCR, ELISA); type: cell-based, mice; conditions: 3 μM or 10 μM, mRNA vaccine (Moderna) 1 μg/mL 20 hours
[2] = biological target: DNA sequence (GAAAGTG C GAAAGTG C GAAAGTG C: SEQ ID No: 28); test: Binding to target DNA sequence, Octet K2; conditions: Octet K2, 10 to 320 nM, binding and dissociation 60 seconds each, biotin-labeled target sequence
Protocol: In order to verify the cytotoxic activity of IRF-PIPA 3, dsDNA concentration (left view in the figure) and LDH concentration (right view in the figure) in the culture supernatant were measured. The same experiment as that in FIG. 2 was carried out, and the culture supernatant was recovered. A lysate obtained by mixing 2.5×10^5 peritoneal macrophages with 90 μL of 10% FBS-RPMI or D-MEM medium and 10 μL of Lysis Buffer, and then disrupting the cells, was used as a positive control. […] Using Octet K2, the binding of each concentration of IRF-PIPA 3 shown in the figure and a target DNA sequence was analyzed. After mixing a PIPA solution with target DNA, the binding of the two substances was measured for 60 seconds. […] From changes in the binding and dissociation at each concentration over time, a Kd value was calculated as a dissociation constant indicating a binding force. The analysis was performed using Octet K2 (ForteBio) according to standard protocols. A streptavidin-conjugated sensor (ForteBio) was used, and a biotin-labeled target sequence (FASMAC) was allowed to bind to the sensor. Further, according to standard protocols, the binding of 10 to 320 nM IRF-PIPA 3 and the target sequence, and dissociation thereof were analyzed for 60 seconds each.

IFN-β, IL-6 and TNF-α = test: Cytokine concentration in culture supernatant of Poly(I:C)-stimulated peritoneal macrophages (ELISA); type: cell-based, mice; conditions: 3 or 10 μM 24 h, Poly(I:C) 1 μg/mL 16 h
Protocol: Peritoneal macrophages were harvested from wild-type mice, and were then seeded on a 96-well plate at a cell density of 2.5×10^5 cells/well, followed by culturing for 2 hours. Thereafter, the cultured cells were washed twice with PBS. Subsequently, IRF-PIPA 3 was suspended in 10% FBS-RPMI or D-MEM to a final concentration of 3 or 10 µM, and was then added to the wells. After completion of the culture for 24 hours, Poly(I:C) was added to the cultured cells to a final concentration of 1 μg/mL, and the obtained mixture was then cultured for 16 hours. The supernatant was recovered, and the concentrations of IFN-β, IL-6, and TNF-α were then measured by ELISA.
as §1
2×10^4 Raw264.7 cells were seeded on a plate, and were then treated with IRF-PIPA 1, IRF-PIPA 2, IRF-PIPA 3 or IRF-PIPA 4 for 24 hours. […] The concentration of cytokine in the culture supernatant was measured using ELISA kit (R&D SYSTEMS) according to the standard protocols. The culture supernatant was diluted with 1% BSA-PBS, as necessary, and was then analyzed. […] The concentration of cytokine in the culture supernatant was measured using ELISA kit (R&D SYSTEMS) according to the same standard protocols. On the other hand, the concentration of cytokine in mouse plasma was measured by administering 400 μg/mouse IRF-PIPA 3 into the abdominal cavity of wild-type mice, then administering 250 μg of Poly(I:C) into the same abdominal cavity 24 hours after the IRF-PIPA 3 administration, then collecting blood further 2 hours after the Poly(I:C) administration, and then measuring the cytokine concentration in the plasma using ELISA kit (R&D SYSTEMS) according to standard protocols.

RBD = RBD concentration in plasma after mRNA vaccine plus Poly(I:C) (ELISA); type: in vivo, mice; conditions: 400 μg/mouse i.m. or i.p., 24 h later mRNA vaccine 1 μg/mouse i.m. plus Poly(I:C) 250 μg/mouse, blood one day later

## CC(=O)Nc1cn(C)c(C(=O)Nc2cc(C(=O)NCCC(=O)Nc3cc(C(=O)Nc4cn(C)c(C(=O)NCCC(=O)Nc5cn(C)c(C(=O)NCCCC(=O)Nc6cc(C(=O)Nc7cc(C(=O)Nc8cc(C(=O)NCCC(=O)Nc9cc(C(=O)Nc%10cc(C(=O)NCCC(=O)NCCCN(C)C)n(C)c%10)n(C)c9)n(C)c8)n(C)c7)n(C)c6)n5)n4)n(C)c3)n(C)c2)n1 [IRF-PIPA 3]
[1]
  relative expression level of Ifnb1 mRNA: strongly suppressed induction of the expression of Ifnb1 mRNA in a concentration-dependent manner
IFN-β
  IFN-b transcription after addition of the mRNA vaccine (Ifnb1 relative expression, IFN-β concentration): strongly suppressed IFN-b transcription after addition of the mRNA vaccine in a concentration-dependent manner
[2]
  Kd: 0.0227 µM
IFN-β, IL-6 and TNF-α
  suppression of IFN-β production: strongly suppresses IFN-β production in a concentration-dependent manner
  suppression of IL-6: suppressed, although less strongly than IFN-β
  suppression of TNF-α: suppressed, although less strongly than IFN-β
RBD
  concentration of the RBD protein in plasma: a decrease in the concentration of the RBD protein caused by Poly(I: C) was suppressed

Reference: patent publication US20250268931A1, “TRANSCRIPTIONAL INHIBITOR FOR IMMUNE-RELATED GENE” (The University of Tokyo, priority 2022, published 2025)
